Experiments:
Type in all cases: in vivo
wild oat (Avena fatua) = experiment: Test B postemergence; conditions: for Oat, Wild plant response rating: scale 0 to 100 (0 no effect, 100 complete control)
Procedure, shortened: (§1)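 Visual rating, 0 (no effect) to 100 (complete control) versus controls, taken 13–15 days after treatment in greenhouse. Compounds formulated in non-phytotoxic solvent plus surfactant; pre: sprayed after seeding; post: plants at 1- to 4-leaf stage, 2–18 cm.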

[1] = test system: blackgrass (Alopecurus myosuroides); experiment: Test B postemergence; conditions: for Blackgrass plant response rating: scale 0 to 100 (0 no effect, 100 complete control)
Procedure, shortened: as §1

rice (Oryza sativa) = experiment: Test B flooded paddy test; conditions: Flood, scale 0 to 100
Procedure, shortened: (§2)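 Visual injury scoring (0 = no effect, 100 = complete control) versus controls made 13 to 15 days after treatment in the greenhouse. Test species were grown in flooded paddy to the 2-leaf stage: rice, barnyardgrass, umbrella sedge, duck salad.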

[2] = test system: umbrella sedge (Cyperus difformis); experiment: Test B flooded paddy test; conditions: Flood, scale 0 to 100
Procedure, shortened: as §2

[3] = test system: barnyardgrass (Echinochloa crus-galli); experiment: Test B flooded paddy test; conditions: Flood
Procedure, shortened: as §2

[4] = test system: duck salad (Heteranthera limosa); experiment: Test B flooded paddy test; conditions: Flood, scale 0 to 100
Procedure, shortened: as §2

[5] = test system: crabgrass (Digitaria sanguinalis); experiment: Test B pre/postemergence
Procedure, shortened: as §1

[6] = test system: lambsquarters (Chenopodium album); experiment: Test B pre/postemergence
Procedure, shortened: as §1

[7] = test system: barnyardgrass (Echinochloa crus-galli); experiment: Test B pre/postemergence
Procedure, shortened: as §1

[8] = test system: pigweed (Amaranthus retroflexus); experiment: Test B pre/postemergence
Procedure, shortened: as §1

[9] = test system: Surinam grass (Brachiaria decumbens); experiment: Test B pre/postemergence
Procedure, shortened: as §1

[10] = test system: wheat (Triticum aestivum); experiment: Test B pre/postemergence
Procedure, shortened: as §1

[11] = test system: velvetleaf (Abutilon theophrasti); experiment: Test B pre/postemergence
Procedure, shortened: as §1

[12] = test system: giant foxtail (Setaria faberii); experiment: Test B pre/postemergence
Procedure, shortened: as §1

corn (Zea mays) = experiment: Test B pre/postemergence
Procedure, shortened: as §1

[13] = test system: morningglory (Ipomoea coccinea); experiment: Test B pre/postemergence
Procedure, shortened: as §1

[14] = test system: cocklebur (Xanthium strumarium); experiment: Test B pre/postemergence
Procedure, shortened: as §1

[15] = Postemergence, 62 g ai/ha, scale 0 to 100 (0 no effect, 100 complete control)
[16] = Postemergence, 125 g ai/ha, scale 0 to 100 (0 no effect, 100 complete control)
[17] = Preemergence, 62 g ai/ha, scale 0 to 100, 0 no effect, 100 complete control
[18] = Preemergence, 125 g ai/ha, scale 0 to 100 (0 no effect, 100 complete control)
[19] = Postemergence, 500 g ai/ha, scale 0 to 100
[20] = Preemergence, 500 g ai/ha, scale 0 to 100 (0 no effect, 100 complete control)

Nc1nc(-c2ccc(Br)cc2)nc(C(=O)O)c1Br [Compound 136]
Oat, Wild plant response rating (wild oat (Avena fatua); 62 g ai/ha): 20
Oat, Wild plant response rating (wild oat (Avena fatua); 125 g ai/ha): 50
Blackgrass plant response rating ([1]; 62 g ai/ha): 70
Blackgrass plant response rating ([1]; 125 g ai/ha): 70
Plant response rating, Rice (rice (Oryza sativa); 125 g ai/ha): 0
Plant response rating, Rice (rice (Oryza sativa); 500 g ai/ha): 40
Plant response rating, Sedge, Umbrella ([2]; 125 g ai/ha): 90
Plant response rating, Sedge, Umbrella ([2]; 500 g ai/ha): 90
Plant response rating, Barnyardgrass ([3]; 125 g ai/ha, scale 0 to 100): 0
Plant response rating, Barnyardgrass ([3]; 500 g ai/ha, scale 0 to 100): 20
Plant response rating, Ducksalad ([4]; 125 g ai/ha): 90
Plant response rating, Ducksalad ([4]; 500 g ai/ha): 90
Crabgrass plant response rating [5, 15]: 70
Crabgrass plant response rating [5, 16]: 80
Plant response rating, Crabgrass [5, 17]: 70
Plant response rating, Crabgrass [5, 18]: 80
Lambsquarters plant response rating [6, 15]: 100
Lambsquarters plant response rating [6, 16]: 100
Plant response rating, Lambsquarters [6, 17]: 90
Plant response rating, Lambsquarters [6, 18]: 100
Barnyardgrass plant response rating [7, 15]: 70
Barnyardgrass plant response rating [7, 16]: 90
Plant response rating, Barnyardgrass [7, 17]: 30
Pigweed plant response rating [8, 15]: 90
Pigweed plant response rating [8, 16]: 100
Plant response rating, Pigweed [8, 17]: 80
Plant response rating, Pigweed [8, 18]: 100
Surinam Grass plant response rating [9, 15]: 70
Surinam Grass plant response rating [9, 16]: 80
Plant response rating, Surinam Grass [9, 17]: 10
Plant response rating, Surinam Grass [9, 18]: 50
Wheat plant response rating [10, 15]: 20
Wheat plant response rating [10, 16]: 60
Plant response rating, Wheat [10, 17]: 50
Plant response rating, Wheat [10, 18]: 70
Velvetleaf plant response rating [11, 15]: 80
Velvetleaf plant response rating [11, 16]: 90
Plant response rating, Velvetleaf [11, 17]: 60
Plant response rating, Velvetleaf [11, 18]: 80
Foxtail, Giant plant response rating [12, 15]: 60
Foxtail, Giant plant response rating [12, 16]: 70
Plant response rating, Foxtail, Giant [12, 17]: 10
Plant response rating, Foxtail, Giant [12, 18]: 50
Corn plant response rating (corn (Zea mays); [15]): 40
Corn plant response rating (corn (Zea mays); [16]): 70
Plant response rating, Corn (corn (Zea mays); [17]): 0
Plant response rating, Corn (corn (Zea mays); [18]): 0
Morningglory plant response rating [13, 15]: 40
Morningglory plant response rating [13, 16]: 100
Plant response rating, Morningglory [13, 17]: 10
Plant response rating, Morningglory [13, 18]: 40
Cocklebur plant response rating [14, 15]: 90
Cocklebur plant response rating [14, 16]: 100
Plant response rating, Cocklebur [14, 17]: 40
Plant response rating, Cocklebur [14, 18]: 70

COC(=O)CNc1nc(C2CC2)nc(C(=O)OC)c1Br [Compound 10]
Oat, Wild plant response rating (wild oat (Avena fatua); 125 g ai/ha): 0
Plant response rating, Oat, Wild (wild oat (Avena fatua); 500 g ai/ha, scale 0 to 100): 10
Blackgrass plant response rating ([1]; 125 g ai/ha): 0
Plant response rating, Blackgrass ([1]; 500 g ai/ha, scale 0 to 100): 0
Plant response rating, Rice (rice (Oryza sativa); 1000 g ai/ha): 0
Plant response rating, Sedge, Umbrella ([2]; 1000 g ai/ha): 0
Plant response rating, Barnyardgrass ([3]; 1000 g ai/ha, scale 0 (no effect) to 100 (complete control)): 0
Plant response rating, Ducksalad ([4]; 1000 g ai/ha): 0
Crabgrass plant response rating [5, 16]: 30
Plant response rating, Crabgrass [5, 19]: 40
Plant response rating, Crabgrass [5, 18]: 20
Crabgrass plant response rating [5, 20]: 60
Lambsquarters plant response rating [6, 16]: 80
Plant response rating, Lambsquarters [6, 19]: 90
Lambsquarters plant response rating [6, 20]: 90
Barnyardgrass plant response rating [7, 16]: 0
Plant response rating, Barnyardgrass [7, 19]: 10
Plant response rating, Barnyardgrass [7, 18]: 20
Barnyardgrass plant response rating [7, 20]: 50
Pigweed plant response rating [8, 16]: 80
Plant response rating, Pigweed [8, 19]: 90
Plant response rating, Pigweed [8, 18]: 80
Pigweed plant response rating [8, 20]: 90
Surinam Grass plant response rating [9, 16]: 10
Plant response rating, Surinam Grass [9, 19]: 10
Plant response rating, Surinam Grass [9, 18]: 0
Surinam Grass plant response rating [9, 20]: 0
Wheat plant response rating [10, 16]: 0
Plant response rating, Wheat [10, 19]: 0
Plant response rating, Wheat [10, 18]: 0
Wheat plant response rating [10, 20]: 0
Velvetleaf plant response rating [11, 16]: 50
Plant response rating, Velvetleaf [11, 19]: 80
Plant response rating, Velvetleaf [11, 18]: 80
Velvetleaf plant response rating [11, 20]: 90
Foxtail, Giant plant response rating [12, 16]: 0
Plant response rating, Foxtail, Giant [12, 19]: 10
Plant response rating, Foxtail, Giant [12, 18]: 0
Foxtail, Giant plant response rating [12, 20]: 20
Corn plant response rating (corn (Zea mays); [16]): 0
Plant response rating, Corn (corn (Zea mays); [19]): 0
Plant response rating, Corn (corn (Zea mays); [18]): 0
Corn plant response rating (corn (Zea mays); [20]): 0
Morningglory plant response rating [13, 16]: 80
Plant response rating, Morningglory [13, 19]: 80
Plant response rating, Morningglory [13, 18]: 80
Morningglory plant response rating [13, 20]: 90
Cocklebur plant response rating [14, 16]: 60
Plant response rating, Cocklebur [14, 19]: 70
Plant response rating, Cocklebur [14, 18]: 80
Cocklebur plant response rating [14, 20]: 90
